Data as given in article PMC8811472, “Systematic In Vitro Evaluation of a Library of Approved and Pharmacologically Active Compounds for the Identification of Novel Candidate Drugs for KMT2A-Rearranged Leukemia” (Frontiers in Oncology, 2022).

Assays:
U937 cells = assay: 72-hour resazurin-based cytotoxicity assay, U937; assay type: cell-based, human; conditions: U937, CALM-AF10, AML
Procedure: (§1) All cell lines used in this study were mycoplasma-free and have been authenticated using STR profiling. Cells were cultured as previously described ([7], [8]). Characteristics of the leukemia cell lines used in this study are described in Supplementary Table 1 . Peripheral blood mononuclear cells from healthy donors were purchased from Australian Red Cross.
(§2) The cytotoxicity of drugs was assessed through resazurin-based assays and the inhibitory concentration resulting in 50% reduction of cell survival relative to control (IC50) was calculated as previously described ([7]). In synergy studies, cells were exposed to a dilution series of compounds, as single agents or in combination, in resazurin-based assays (72 hours) as described ([8]–[10]). The occurrence of synergy was determined with the Bliss Independence model as previously described ([8]–[10]). Bliss Prediction curves indicated the predicted percentage viability of the cells when exposed to the combination of compounds if both compounds work additively together. Synergy was visualised as the presence of a lower cell viability upon combination of two compounds compared to the viability predicted based on the presence of an additive effect of the compounds (i.e., the viability curve of the combination runs below the Bliss Prediction curve). […]

THP-1 cells = assay: 72-hour resazurin-based cytotoxicity assay, THP-1; assay type: cell-based, human; conditions: THP-1, KMT2A-r t(9;11), infant AML
Procedure: as §1
(§3) The cytotoxicity of drugs was assessed through resazurin-based assays and the inhibitory concentration resulting in 50% reduction of cell survival relative to control (IC50) was calculated as previously described ([7]). In synergy studies, cells were exposed to a dilution series of compounds, as single agents or in combination, in resazurin-based assays (72 hours) as described ([8]–[10]). The occurrence of synergy was determined with the Bliss Independence model as previously described ([8]–[10]). Bliss Prediction curves indicated the predicted percentage viability of the cells when exposed to the combination of compounds if both compounds work additively together. Synergy was visualised as the presence of a lower cell viability upon combination of two compounds compared to the viability predicted based on the presence of an additive effect of the compounds (i.e., the viability curve of the combination runs below the Bliss Prediction curve). The percentage of apoptotic cells was assessed by annexin V and 7-Aminoactinomycin D (7-AAD) (BD Biosciences, Australia) flow cytometry as previously described ([7]).

KOPN-8 cells = assay: 72-hour resazurin-based cytotoxicity assay, KOPN-8; design: species or system human; conditions: KOPN-8, KMT2A-r t(11;19), infant pre-B cell ALL
Procedure: as §1, §2

Jurkat cells = assay: 72-hour resazurin-based cytotoxicity assay, Jurkat; design: species or system human; conditions: KMT2A-wt, childhood T-cell ALL
Procedure: as §1, §3

MCF-7 cells = assay: 72-hour resazurin-based cytotoxicity assay, MCF-7; assay type: cell-based, human; conditions: MCF-7, breast adenocarcinoma
Procedure: as §1, §2

PER-490 cells = assay: 72-hour resazurin-based cytotoxicity assay, PER-490; assay type: cell-based, human; conditions: PER-490, KMT2A-r t(4;11), infant ALL
Procedure: as §1, §2

PER-485 cells [1] = assay: 72-hour resazurin-based cytotoxicity assay, PER-485; assay type: cell-based, human; conditions: PER-485, KMT2A-r t(4;11), infant ALL derived
Procedure: as §1, §3

HEY cells = assay: 72-hour resazurin-based cytotoxicity assay, HEY; assay type: cell-based, human; conditions: ovarian carcinoma
Procedure: as §1, §2

MV4;11 cells = assay: 72-hour resazurin-based cytotoxicity assay, MV4;11; assay type: cell-based, human; conditions: MV4;11, KMT2A-r t(4;11), childhood AML
Procedure: as §1, §2

KELLY cells = assay: 72-hour resazurin-based cytotoxicity assay, KELLY; assay type: cell-based, human; conditions: neuroblastoma
Procedure: as §1, §2

[2] = test system: KMT2A-r cells (PER-485 and THP-1); assay: Annexin V positive cells, KMT2A-r cells; assay type: cell-based, human; conditions: as early as 6 hours post-exposure; IC50 doses
Procedure: as §3

PER-785 cells = assay: 72-hour resazurin-based cytotoxicity assay, PER-785; assay type: cell-based, human; conditions: PER-785, KMT2A-r t(4;11), infant ALL
Procedure: as §1, §2

MRC-5 cells = assay: 72-hour resazurin-based cytotoxicity assay, MRC-5; assay type: cell-based, human; conditions: MRC-5, non-malignant, normal lung
Procedure: as §1, §3

PER-485 cells [3] = assay: Synergy study (Bliss Independence model), PER-485; assay type: cell-based, human; conditions: PER-485, 72 h
Procedure: as §3

[4] = test system: cleavage of PARP and caspase-3; assay: Western blot of apoptotic markers; assay type: cell-based, human; conditions: sensitive KMT2A-r leukemia cells, not in KMT2A-wt
Procedure: Western blotting experiments were performed as previously described ([7]). Antibodies used are listed in Supplementary Table 2 . Actin was used as a loading control.

H460 cells = assay: 72-hour resazurin-based cytotoxicity assay, H460; assay type: cell-based, human; conditions: H460, lung carcinoma
Procedure: as §1, §2

PER-703 cells = assay: 72-hour resazurin-based cytotoxicity assay, PER-703; assay type: cell-based, human; conditions: PER-703, KMT2A-r t(1;11), infant ALL derived
Procedure: as §1, §2

[5] = test system: NR5A1 target genes ENO1 and PKM; KMT2A target genes; assay: qRT-PCR of gene expression after treatment; assay type: cell-based, human; conditions: three hours
Procedure: Total RNA was isolated using a Qiagen RNeasy kit and cDNA synthesized using the iScript cDNA Synthesis Kit (BioRad). Quantitative PCR was run and analyzed on Applied Biosystem’s QuantStudio5 Real-Time PCR Detection System, using Taqman gene expression assays for genes NR5A1 (Hs00610436_m1), GUSB (Hs99999908_m1) and HPRT (Hs99999909_m1) Relative expressions were determined as previously described ([7]).

[6] = test system: peripheral blood mononuclear cells from healthy donors; assay: 72-hour resazurin-based viability assay, PBMC from healthy donors; assay type: cell-based, human; conditions: for IC50: PBMC, 72 h resazurin
Procedure: as §1, §3

SEMK2 cells = assay: 72-hour resazurin-based cytotoxicity assay, SEMK2; design: species or system human; conditions: SEMK2, KMT2A-r t(4;11), pre-B cell childhood ALL
Procedure: as §1, §3

REH cells = assay: 72-hour resazurin-based cytotoxicity assay, REH; design: species or system human; conditions: KMT2A-wt, pre-B cell ALL
Procedure: as §1, §3

BE(2)C cells = assay: 72-hour resazurin-based cytotoxicity assay, BE(2)C; assay type: cell-based, human; conditions: childhood neuroblastoma
Procedure: as §1, §2

KMT2A-wt REH cells = assay: Synergy study (Bliss Independence model), REH; assay type: cell-based, human; conditions: 72 h
Procedure: as §3

RS4;11 cells = assay: 72-hour resazurin-based cytotoxicity assay, RS4;11; design: species or system human; conditions: RS4;11, KMT2A-r t(4;11), pre-B cell ALL
Procedure: as §1, §3

27/87 cells = assay: 72-hour resazurin-based cytotoxicity assay, 27/87; assay type: cell-based, human; conditions: 27/87, endometrioid ovarian cancer
Procedure: as §1, §2

KP-MO-TS cells = assay: 72-hour resazurin-based cytotoxicity assay, KP-MO-TS; assay type: cell-based, human; conditions: CALM-AF10, AML
Procedure: as §1, §2

LNCaP cells = assay: 72-hour resazurin-based cytotoxicity assay, LNCaP; assay type: cell-based, human; conditions: prostate carcinoma
Procedure: as §1, §2

PER-826 cells = assay: 72-hour resazurin-based cytotoxicity assay, PER-826; assay type: cell-based, human; conditions: PER-826, KMT2A-r complex t(11;19), infant ALL
Procedure: as §1, §2

MOLM-13 cells = assay: 72-hour resazurin-based cytotoxicity assay, MOLM-13; assay type: cell-based, human; conditions: MOLM-13, KMT2A-r t(9;11), AML
Procedure: as §1, §3

[7] = Mouse liver microsomal stability assay; assay type: in vitro ADME; conditions: mouse liver microsomes
Description: Compound half-life was estimated by mouse liver microsomal stability assays as described ([10]).

WI-38 cells = assay: 72-hour resazurin-based cytotoxicity assay, WI-38; assay type: cell-based, human; conditions: WI-38, non-malignant, normal lung
Procedure: as §1, §2

CEM cells = assay: 72-hour resazurin-based cytotoxicity assay, CEM; design: species or system human; conditions: KMT2A-wt, childhood T-cell ALL
Procedure: as §1, §3

MOLM13 cells = assay: Synergy study (Bliss Independence model), MOLM13; assay type: cell-based, human; conditions: MOLM13, 72 h
Procedure: as §3

[8] = test system: KMT2A-r PER-485 and KMT2A-wt REH cells; assay: 72-hour resazurin-based viability assay, PER-485 versus REH; assay type: cell-based, human
Procedure: as §3

CCOC(=O)C(C)Oc1cccc2c(=O)n(CC(=O)Nc3ccc4c(c3)OCCO4)ccc12 (stereo not drawn) [SID7969543]
IC50 (U937 cells): 1.9 µM
IC50 (THP-1 cells): 2.6 µM
IC50 (KOPN-8 cells): > 20 µM
IC50 (Jurkat cells): > 20 µM
IC50 (MCF-7 cells): > 20 µM
IC50 (PER-490 cells): 1.9 µM
IC50 (PER-485 cells [1]): 1.4 µM
IC50 (HEY cells): > 20 µM
IC50 (MV4;11 cells): 2.5 µM
IC50 (KELLY cells): > 20 µM
percentage of annexin V-positive KMT2A-r cells [2]: significantly increased
IC50 (PER-785 cells): 5 µM
IC50 (MRC-5 cells): > 20 µM
combination effect (Bliss) (PER-485 cells [3]; with cytarabine): synergy
combination effect (Bliss) (PER-485 cells [3]; with daunorubicin): synergy
combination effect (Bliss) (PER-485 cells [3]; with etoposide): synergy
combination effect (Bliss) (PER-485 cells [3]; with mitoxantrone): additive
combination effect (Bliss) (PER-485 cells [3]; with topotecan): additive
cleavage of PARP and caspase-3 [4]: increased cleavage
IC50 (H460 cells): > 20 µM
IC50 (PER-703 cells): 4.9 µM
expression of genes not regulated by NR5A1 (HOXA9, HOXA10, MEIS1, MYB) ([5]; KMT2A-r cell lines): remained unchanged
expression of NR5A1 target genes ENO1 and PKM ([5]; sensitive KMT2A-r cell lines, before induction of apoptosis): significantly decreased
IC50 ([6]; Donor 1): > 20 µM
IC50 ([6]; Donor 2): > 20 µM
IC50 ([6]; Donor 3): > 20 µM
viability of peripheral blood mononuclear cells (PBMC) ([6]; healthy donors, doses that inhibit KMT2A-r leukemia cells): did not significantly impact the viability
IC50 (SEMK2 cells): > 20 µM
IC50 (REH cells): > 20 µM
IC50 (BE(2)C cells): > 20 µM
combination effect (Bliss) (KMT2A-wt REH cells; with cytarabine): No synergy
combination effect (Bliss) (KMT2A-wt REH cells; with daunorubicin): No synergy
combination effect (Bliss) (KMT2A-wt REH cells; with etoposide): No synergy
IC50 (RS4;11 cells): > 20 µM
IC50 (27/87 cells): > 20 µM
IC50 (KP-MO-TS cells): 1.9 µM
IC50 (LNCaP cells): > 20 µM
IC50 (PER-826 cells): > 20 µM
IC50 (MOLM-13 cells): 1 µM
half-life in microsomal stability assays [7]: short half-life
IC50 (WI-38 cells): > 20 µM
IC50 (CEM cells): > 20 µM
combination effect (Bliss) (MOLM13 cells; with cytarabine): synergy
combination effect (Bliss) (MOLM13 cells; with daunorubicin): synergy
combination effect (Bliss) (MOLM13 cells; with etoposide): additive
combination effect (Bliss) (MOLM13 cells; with mitoxantrone): additive
combination effect (Bliss) (MOLM13 cells; with topotecan): additive

CCCCCCCOc1ccc(O)cc1 [AC-45594]
selective cytotoxicity towards KMT2A-r leukemia cells [8]: did not display selective cytotoxicity
